Source: PMC4508061, “Selectivity Profiling and Biological Activity of Novel β-Carbolines as Potent and Selective DYRK1 Kinase Inhibitors” (PLoS ONE, 2015)

Experiments:
STK33 = STK33 (Homo sapiens, UniProt Q9BYT3); assay: ProQinase radiometric kinase panel; conditions: mean of 2 exp.
IGF1-R = IGF1-R (Homo sapiens, UniProt P08069); assay: ProQinase radiometric kinase panel; conditions: mean of 2 exp.
TRK-C = TRK-C (Homo sapiens, UniProt Q16288); assay: ProQinase radiometric kinase panel; conditions: mean of 2 exp.
MAP3K1 = MAP3K1 (Homo sapiens, UniProt Q13233); assay: ProQinase radiometric kinase panel; conditions: mean of 2 exp.
EEF2K = EEF2K (Homo sapiens, UniProt O00418); assay: ProQinase radiometric kinase panel; conditions: mean of 2 exp.
FGF-R4 = FGF-R4 (Homo sapiens, UniProt P22455); assay: ProQinase radiometric kinase panel; conditions: mean of 2 exp.
S6K = S6K (Homo sapiens, UniProt P23443); assay: ProQinase radiometric kinase panel; conditions: mean of 2 exp.
EPHA3 = EPHA3 (Homo sapiens, UniProt P29320); assay: ProQinase radiometric kinase panel; conditions: mean of 2 exp.
AKT1 = AKT1 (Homo sapiens, UniProt P31749); assay: ProQinase radiometric kinase panel; conditions: mean of 2 exp.
NEK2 = NEK2 (Homo sapiens, UniProt P51955); assay: ProQinase radiometric kinase panel; conditions: mean of 2 exp.
CAMK2B = CAMK2B (Homo sapiens, UniProt Q13554); assay: ProQinase radiometric kinase panel; conditions: mean of 2 exp.
WEE1 = WEE1 (Homo sapiens, UniProt P30291); assay: ProQinase radiometric kinase panel; conditions: mean of 2 exp.
VEGF-R2 = VEGF-R2 (Homo sapiens, UniProt P35968); assay: ProQinase radiometric kinase panel; conditions: mean of 2 exp.
FGR = FGR (Homo sapiens, UniProt P09769); assay: ProQinase radiometric kinase panel; conditions: mean of 2 exp.
TSK2 = TSK2 (Homo sapiens, UniProt Q96PF2); assay: ProQinase radiometric kinase panel; conditions: mean of 2 exp.
RPS6KA3 = RPS6KA3 (Homo sapiens, UniProt P51812); assay: ProQinase radiometric kinase panel; conditions: mean of 2 exp.
TLK1 = TLK1 (Homo sapiens, UniProt Q9UKI8); assay: ProQinase radiometric kinase panel; conditions: mean of 2 exp.
PAK3 = PAK3 (Homo sapiens, UniProt O75914); assay: ProQinase radiometric kinase panel; conditions: mean of 2 exp.
STK23 = STK23 (Homo sapiens, UniProt Q9UPE1); assay: ProQinase radiometric kinase panel; conditions: mean of 2 exp.
TAOK2 = TAOK2 (Homo sapiens, UniProt Q9UL54); assay: ProQinase radiometric kinase panel; conditions: mean of 2 exp.
CDK7/CycH/MAT1 = CDK7/CycH/MAT1 (Homo sapiens, UniProt P50613); assay: ProQinase radiometric kinase panel; conditions: mean of 2 exp.
PKC-eta = PKC-eta (Homo sapiens, UniProt P24723); assay: ProQinase radiometric kinase panel; conditions: mean of 2 exp.
DNA-PK = DNA-PK (Homo sapiens, UniProt P78527); assay: ProQinase radiometric kinase panel; conditions: mean of 2 exp.
BRSK1 = BRSK1 (Homo sapiens, UniProt Q8TDC3); assay: ProQinase radiometric kinase panel; conditions: mean of 2 exp.
MAPKAPK5 = MAPKAPK5 (Homo sapiens, UniProt Q8IW41); assay: ProQinase radiometric kinase panel; conditions: mean of 2 exp.
TYRO3 = TYRO3 (Homo sapiens, UniProt Q06418); assay: ProQinase radiometric kinase panel; conditions: mean of 2 exp.
DCAMKL2 = DCAMKL2 (Homo sapiens, UniProt Q8N568); assay: ProQinase radiometric kinase panel; conditions: mean of 2 exp.
MAP3K7 = MAP3K7 (Homo sapiens, UniProt O43318); assay: ProQinase radiometric kinase panel; conditions: mean of 2 exp.
CAMK2A = CAMK2A (Homo sapiens, UniProt Q9UQM7); assay: ProQinase radiometric kinase panel; conditions: mean of 2 exp.
MAP4K5 = MAP4K5 (Homo sapiens, UniProt Q9Y4K4); assay: ProQinase radiometric kinase panel; conditions: mean of 2 exp.
NEK4 = NEK4 (Homo sapiens, UniProt P51957); assay: ProQinase radiometric kinase panel; conditions: mean of 2 exp.
RPS6KA2 = RPS6KA2 (Homo sapiens, UniProt Q15349); assay: ProQinase radiometric kinase panel; conditions: mean of 2 exp.
MAP3K9 = MAP3K9 (Homo sapiens, UniProt P80192); assay: ProQinase radiometric kinase panel; conditions: mean of 2 exp.
MAP3K11 = MAP3K11 (Homo sapiens, UniProt Q16584); assay: ProQinase radiometric kinase panel; conditions: mean of 2 exp.
EPHA5 = EPHA5 (Homo sapiens, UniProt P54756); assay: ProQinase radiometric kinase panel; conditions: mean of 2 exp.
MEK2 = MEK2 (Homo sapiens, UniProt P36507); assay: ProQinase radiometric kinase panel; conditions: mean of 2 exp.
Cell viability XTT assay = format: cell-based; conditions: human, SH-SY5Y cells, read-out: Viability of treated cells relative to untreated control
HCK = HCK (Homo sapiens, UniProt P08631); assay: ProQinase radiometric kinase panel; conditions: mean of 2 exp.
MARK1 = MARK1 (Homo sapiens, UniProt Q9P0L2); assay: ProQinase radiometric kinase panel; conditions: mean of 2 exp.

Sequence of EPHA3 (P29320 21-983): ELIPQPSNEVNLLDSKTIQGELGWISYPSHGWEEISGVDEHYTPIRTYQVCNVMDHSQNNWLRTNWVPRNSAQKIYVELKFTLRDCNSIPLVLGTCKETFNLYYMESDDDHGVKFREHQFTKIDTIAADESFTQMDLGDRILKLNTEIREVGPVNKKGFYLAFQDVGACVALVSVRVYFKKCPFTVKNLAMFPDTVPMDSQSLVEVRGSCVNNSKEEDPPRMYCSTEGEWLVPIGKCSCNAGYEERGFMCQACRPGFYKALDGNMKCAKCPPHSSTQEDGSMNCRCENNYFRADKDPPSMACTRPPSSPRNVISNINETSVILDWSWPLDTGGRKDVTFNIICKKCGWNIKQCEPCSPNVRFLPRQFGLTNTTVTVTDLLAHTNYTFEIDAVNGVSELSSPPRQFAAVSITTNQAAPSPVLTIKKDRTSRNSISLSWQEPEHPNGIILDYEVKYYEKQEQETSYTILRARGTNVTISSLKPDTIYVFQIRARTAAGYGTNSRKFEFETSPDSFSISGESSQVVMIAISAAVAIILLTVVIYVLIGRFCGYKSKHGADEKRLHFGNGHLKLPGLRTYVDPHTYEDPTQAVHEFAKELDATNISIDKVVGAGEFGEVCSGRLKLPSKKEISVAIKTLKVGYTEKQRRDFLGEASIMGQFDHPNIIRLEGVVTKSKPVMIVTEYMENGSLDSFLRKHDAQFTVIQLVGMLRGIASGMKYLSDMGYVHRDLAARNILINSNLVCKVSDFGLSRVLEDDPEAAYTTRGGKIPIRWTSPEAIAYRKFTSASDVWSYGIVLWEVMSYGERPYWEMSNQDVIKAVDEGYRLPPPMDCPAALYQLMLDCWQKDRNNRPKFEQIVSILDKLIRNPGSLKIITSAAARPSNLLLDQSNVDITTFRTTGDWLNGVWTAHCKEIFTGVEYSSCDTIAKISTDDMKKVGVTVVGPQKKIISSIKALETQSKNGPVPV
Sequence of CAMK2A (Q9UQM7 whole entry): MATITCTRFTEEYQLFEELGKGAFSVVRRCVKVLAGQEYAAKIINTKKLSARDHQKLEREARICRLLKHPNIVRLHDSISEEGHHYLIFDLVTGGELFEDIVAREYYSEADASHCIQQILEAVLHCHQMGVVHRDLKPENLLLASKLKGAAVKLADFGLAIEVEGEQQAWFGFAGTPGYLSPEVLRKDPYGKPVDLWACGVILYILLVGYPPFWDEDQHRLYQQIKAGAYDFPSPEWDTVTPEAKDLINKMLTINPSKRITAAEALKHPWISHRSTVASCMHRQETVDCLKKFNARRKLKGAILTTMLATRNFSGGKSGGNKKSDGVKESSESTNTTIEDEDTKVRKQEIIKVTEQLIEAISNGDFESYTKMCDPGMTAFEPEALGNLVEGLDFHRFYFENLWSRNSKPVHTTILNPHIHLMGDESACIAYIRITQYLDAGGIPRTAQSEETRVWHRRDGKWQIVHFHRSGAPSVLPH
Sequence of IGF1-R (P08069 31-1367): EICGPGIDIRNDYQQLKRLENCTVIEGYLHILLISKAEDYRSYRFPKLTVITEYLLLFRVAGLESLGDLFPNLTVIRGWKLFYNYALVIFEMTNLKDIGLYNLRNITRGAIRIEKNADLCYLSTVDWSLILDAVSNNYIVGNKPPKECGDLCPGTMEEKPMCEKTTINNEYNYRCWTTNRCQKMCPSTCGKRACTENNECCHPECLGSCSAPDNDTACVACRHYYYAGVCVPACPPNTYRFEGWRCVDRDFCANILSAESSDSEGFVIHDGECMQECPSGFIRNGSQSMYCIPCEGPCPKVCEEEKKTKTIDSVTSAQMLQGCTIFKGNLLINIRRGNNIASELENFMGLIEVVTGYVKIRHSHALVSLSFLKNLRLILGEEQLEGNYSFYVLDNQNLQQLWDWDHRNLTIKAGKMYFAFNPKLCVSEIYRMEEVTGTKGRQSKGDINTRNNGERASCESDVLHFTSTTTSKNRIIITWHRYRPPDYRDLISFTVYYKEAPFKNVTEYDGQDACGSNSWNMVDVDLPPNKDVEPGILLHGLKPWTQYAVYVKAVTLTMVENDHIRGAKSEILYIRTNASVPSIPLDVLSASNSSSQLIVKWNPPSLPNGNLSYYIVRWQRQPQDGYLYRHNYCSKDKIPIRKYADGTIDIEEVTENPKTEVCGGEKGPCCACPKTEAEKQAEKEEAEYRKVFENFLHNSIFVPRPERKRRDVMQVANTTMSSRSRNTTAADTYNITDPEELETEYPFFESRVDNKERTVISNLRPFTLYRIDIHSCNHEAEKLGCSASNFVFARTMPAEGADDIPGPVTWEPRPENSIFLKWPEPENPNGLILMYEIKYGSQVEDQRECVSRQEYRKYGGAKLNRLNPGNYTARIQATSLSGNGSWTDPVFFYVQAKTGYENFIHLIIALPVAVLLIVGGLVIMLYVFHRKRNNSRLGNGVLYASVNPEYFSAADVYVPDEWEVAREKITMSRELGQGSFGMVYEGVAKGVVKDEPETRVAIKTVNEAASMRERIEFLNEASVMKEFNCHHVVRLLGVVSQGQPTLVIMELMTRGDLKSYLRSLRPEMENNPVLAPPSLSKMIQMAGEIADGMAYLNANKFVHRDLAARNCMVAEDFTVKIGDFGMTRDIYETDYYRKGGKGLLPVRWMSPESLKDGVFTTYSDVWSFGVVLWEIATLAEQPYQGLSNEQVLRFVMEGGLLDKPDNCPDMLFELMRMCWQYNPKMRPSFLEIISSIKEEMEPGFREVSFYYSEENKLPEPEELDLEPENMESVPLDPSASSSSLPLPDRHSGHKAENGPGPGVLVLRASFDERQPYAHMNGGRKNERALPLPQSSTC
Sequence of RPS6KA2 (Q15349 whole entry): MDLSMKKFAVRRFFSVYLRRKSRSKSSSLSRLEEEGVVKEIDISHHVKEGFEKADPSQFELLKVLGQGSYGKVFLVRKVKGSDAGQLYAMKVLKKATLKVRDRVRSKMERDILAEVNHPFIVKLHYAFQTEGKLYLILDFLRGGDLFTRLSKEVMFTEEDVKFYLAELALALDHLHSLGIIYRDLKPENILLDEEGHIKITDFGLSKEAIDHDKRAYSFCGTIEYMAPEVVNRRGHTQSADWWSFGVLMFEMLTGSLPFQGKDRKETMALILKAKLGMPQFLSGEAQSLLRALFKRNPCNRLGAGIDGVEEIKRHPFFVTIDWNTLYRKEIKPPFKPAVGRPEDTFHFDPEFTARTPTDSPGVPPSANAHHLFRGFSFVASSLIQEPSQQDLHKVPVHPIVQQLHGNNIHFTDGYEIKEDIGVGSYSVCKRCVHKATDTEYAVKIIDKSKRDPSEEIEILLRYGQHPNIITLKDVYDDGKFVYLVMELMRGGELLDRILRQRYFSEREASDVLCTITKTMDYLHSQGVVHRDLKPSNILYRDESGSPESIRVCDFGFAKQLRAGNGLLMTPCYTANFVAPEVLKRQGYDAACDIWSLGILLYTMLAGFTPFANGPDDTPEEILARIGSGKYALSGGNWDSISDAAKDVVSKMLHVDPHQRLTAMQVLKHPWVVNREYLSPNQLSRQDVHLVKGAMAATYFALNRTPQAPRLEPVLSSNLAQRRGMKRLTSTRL
Sequence of TAOK2 (Q9UL54 whole entry): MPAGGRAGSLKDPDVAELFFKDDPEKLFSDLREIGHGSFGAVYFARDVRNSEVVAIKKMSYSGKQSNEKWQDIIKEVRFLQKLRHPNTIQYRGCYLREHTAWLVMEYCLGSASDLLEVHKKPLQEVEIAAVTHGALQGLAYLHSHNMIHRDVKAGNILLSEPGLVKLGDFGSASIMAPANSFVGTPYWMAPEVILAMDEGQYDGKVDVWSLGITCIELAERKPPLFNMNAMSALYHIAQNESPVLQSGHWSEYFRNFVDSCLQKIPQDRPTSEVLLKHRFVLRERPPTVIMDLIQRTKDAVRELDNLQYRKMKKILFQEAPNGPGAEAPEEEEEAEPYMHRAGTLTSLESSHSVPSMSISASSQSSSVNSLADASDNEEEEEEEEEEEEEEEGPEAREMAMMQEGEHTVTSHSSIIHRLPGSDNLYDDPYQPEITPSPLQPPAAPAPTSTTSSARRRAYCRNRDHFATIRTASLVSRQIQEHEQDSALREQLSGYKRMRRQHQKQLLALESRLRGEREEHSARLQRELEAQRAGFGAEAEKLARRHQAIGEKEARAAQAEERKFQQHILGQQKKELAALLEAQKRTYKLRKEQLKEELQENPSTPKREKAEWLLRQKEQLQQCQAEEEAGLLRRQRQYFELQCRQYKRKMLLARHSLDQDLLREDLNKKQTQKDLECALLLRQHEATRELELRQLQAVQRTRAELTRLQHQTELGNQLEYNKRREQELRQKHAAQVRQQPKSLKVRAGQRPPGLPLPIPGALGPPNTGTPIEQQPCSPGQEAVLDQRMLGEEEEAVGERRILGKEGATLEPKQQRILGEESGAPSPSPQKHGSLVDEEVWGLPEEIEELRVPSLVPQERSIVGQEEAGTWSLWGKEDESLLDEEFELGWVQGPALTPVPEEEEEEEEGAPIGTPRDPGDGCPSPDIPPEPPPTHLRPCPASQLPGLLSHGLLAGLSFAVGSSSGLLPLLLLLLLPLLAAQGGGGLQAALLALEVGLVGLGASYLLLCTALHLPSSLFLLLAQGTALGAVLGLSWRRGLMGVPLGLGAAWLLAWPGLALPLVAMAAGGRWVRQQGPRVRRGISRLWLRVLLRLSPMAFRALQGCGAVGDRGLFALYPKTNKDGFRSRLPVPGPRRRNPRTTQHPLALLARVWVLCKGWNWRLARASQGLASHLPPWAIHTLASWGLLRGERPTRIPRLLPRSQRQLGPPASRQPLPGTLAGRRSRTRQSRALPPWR
Sequence of MAP3K7 (O43318 1-303 limits assumed): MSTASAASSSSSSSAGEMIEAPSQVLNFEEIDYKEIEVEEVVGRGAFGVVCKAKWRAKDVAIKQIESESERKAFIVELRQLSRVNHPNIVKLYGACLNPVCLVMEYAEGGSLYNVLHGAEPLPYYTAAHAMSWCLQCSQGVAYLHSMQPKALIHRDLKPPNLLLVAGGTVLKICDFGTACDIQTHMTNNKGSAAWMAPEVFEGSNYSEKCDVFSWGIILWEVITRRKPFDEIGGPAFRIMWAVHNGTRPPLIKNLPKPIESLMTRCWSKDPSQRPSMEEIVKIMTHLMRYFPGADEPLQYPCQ

- residual activity at 1 µM, Mean (STK33): 87 % of control
- residual activity at 1 µM, Mean (IGF1-R): 83 % of control
- residual activity at 1 µM, Mean (TRK-C): 87 % of control
- residual activity at 1 µM, Mean (MAP3K1): 97 % of control
- residual activity at 1 µM, Mean (EEF2K): 98 % of control
- residual activity at 1 µM, Mean (FGF-R4): 98 % of control
- residual activity at 1 µM, Mean (S6K): 85 % of control
- residual activity at 1 µM, Mean (EPHA3): 105 % of control
- residual activity at 1 µM, Mean (AKT1): 102 % of control
- residual activity at 1 µM, Mean (NEK2): 90 % of control
- residual activity at 1 µM, Mean (CAMK2B): 92 % of control
- residual activity at 1 µM, Mean (WEE1): 100 % of control
- residual activity at 1 µM, Mean (VEGF-R2): 98 % of control
- residual activity at 1 µM, Mean (FGR): 101 % of control
- residual activity at 1 µM, Mean (TSK2): 92 % of control
- residual activity at 1 µM, Mean (RPS6KA3): 101 % of control
- residual activity at 1 µM, Mean (TLK1): 91 % of control
- residual activity at 1 µM, Mean (PAK3): 95 % of control
- residual activity at 1 µM, Mean (STK23): 93 % of control
- residual activity at 1 µM, Mean (TAOK2): 98 % of control
- residual activity at 1 µM, Mean (CDK7/CycH/MAT1): 100 % of control
- residual activity at 1 µM, Mean (PKC-eta): 79 % of control
- residual activity at 1 µM, Mean (DNA-PK): 63 % of control
- residual activity at 1 µM, Mean (BRSK1): 107 % of control
- residual activity at 1 µM, Mean (MAPKAPK5): 89 % of control
- residual activity at 1 µM, Mean (TYRO3): 93 % of control
- residual activity at 1 µM, Mean (DCAMKL2): 97 % of control
- residual activity at 1 µM, Mean (MAP3K7): 91 % of control
- residual activity at 1 µM, Mean (CAMK2A): 79 % of control
- residual activity at 1 µM, Mean (MAP4K5): 84 % of control
- residual activity at 1 µM, Mean (NEK4): 98 % of control
- residual activity at 1 µM, Mean (RPS6KA2): 97 % of control
- residual activity at 1 µM, Mean (MAP3K9): 100 % of control
- residual activity at 1 µM, Mean (MAP3K11): 98 % of control
- residual activity at 1 µM, Mean (EPHA5): 84 % of control
- residual activity at 1 µM, Mean (MEK2): 37 % of control
- residual activity at 1 µM, Mean (HCK): 101 % of control
- residual activity at 1 µM, Mean (MARK1): 101 % of control
SMILES: COc1ccc2c3ccnc(Cl)c3n(CC#N)c2c1 [AnnH75]
- viability at 3 days, 1 µM (Cell viability XTT assay; 1 μM): 89%
- viability at 3 days, 3 µM (Cell viability XTT assay; 3 μM): 73%
